What all share (assay): NCI tumour cell line growth inhibition, 48 h
The test system of experiment [1] is NCI-H23 lung.
Experiment [2] deals with U251 CNS.
Experiment [3] concerns KM12 colon.
In experiment [4] the test system is OVCAR-3 ovarian.
In experiment [5] the test system is NCI-H226 lung.
In experiment [6] the test system is HL-60(TB) leukemia.
In experiment [7] the test system is UACC-257 melanoma.
Experiment [8] has as its system HT29 colon.
Experiment [9] has as its system M19-MEL melanoma.
Experiment [10] relates to M14 melanoma.

The structures appear in SMILES notation. “And” between values parts separate entries of the source, which are not always exact repeats. Identical values can stand only once.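 Step 1: Grow cells in 96-well plates. Step 2: Expose to compound for 48 hours at 5 concentrations. Step 3: Interpolate endpoints linearly; if unreached, use highest concentration. GI50 = concentration required for 50% inhibition of growth. The concentration for full growth arrest is given as TGI.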 Bounds are passed on as bounds.

From PubChem BioAssay (NCI) come the findings set out here.

On to `CCC1(OC(=O)CN)C(=O)OCc2c1cc1n(c2=O)Cc2cc3cc4c(cc3nc2-1)OCO4` (stereo not given), for which the GI50 is under 10 nM in experiment [1]; under 10 nM in [2]; 126 nM and 187 nM in experiment [3]; 196 nM and 131 nM in experiment [4]; 24 nM and < 10 nM in [5]; under 10 nM in [6]. Further, the GI50 is < 10 nM and 48.4 nM in [7]; 24.5 nM and 17.1 nM in experiment [8]. Moreover, the TGI is 119 nM and 33.7 nM in experiment [1]; 19.5 nM in experiment [2]; 1050 nM and 554 nM in [4]; 201 nM and 299 nM in [5]; 281 nM and 603 nM in experiment [7]; 739 nM and 281 nM in experiment [8]. In experiment [9], the TGI was 1040 nM and 416 nM.
`CCN(CCCl)c1cccc(NC(=O)c2ccc(C(=O)Nc3cccc(CN(C)C)c3)cc2)c1`: the TGI in experiment [1] worked out at 1150 nM; in experiment [2], 4080 nM; in [10], 860 nM; in [6], 12700 nM; in experiment [7] it was 304 nM.
Take `CS(=O)(=O)[O-].CS(=O)(=O)[O-].NC1CCCCC1N.[Pt+4]` (stereo not given): the GI50 in experiment [1] was 88000 nM; in [2], over 87200 nM; in [3] it was over 100000 nM; in experiment [4], over 100000 nM; in [5], 39200 nM; in [6], 33500 nM. For the same molecule, the figures for the GI50 in experiment [7], in experiment [8] and in experiment [9] were over 100000 nM, 62300 nM and 34200 nM, respectively. The TGI in experiment [1] is over 100000 nM; in [2] it was over 100000 nM; in experiment [3], over 100000 nM; in experiment [4], over 100000 nM; in [5], over 100000 nM; in [6] it was over 93500 nM. Moreover, the TGI in experiment [7], in [8] and in experiment [9] was over 100000 nM throughout.
Turning to `CCN(CC)/[N+]([O-])=N/O`, the TGI in [1], in experiment [3], in experiment [4], in experiment [5], in experiment [10] and in [6] was over 100000 nM each time. In addition, the TGI in [7], in experiment [8] and in experiment [9] was over 100000 nM in each case.
With `Cn1c(=O)n(CC2CS2)c2ccccc21` (stereo not given), the TGI in experiment [3], in experiment [4], in [5], in [10], in [6] and in experiment [8] was over 100000 nM throughout. For the same molecule, the TGI in experiment [9] is over 100000 nM.
Regarding `CC1(C)[C@@H](OC(N)=O)C=C[C@]2(CO)[C@H]3CC[C@]4(C)[C@@H](c5ccc(=O)oc5)[C@@H](Cl)C[C@]4(O)C3=CC[C@@H]12`, the GI50 in experiment [1] was under 0.1 nM; in experiment [2], 4.3 nM; in experiment [3] it was 4.56 nM; in [4], under 0.1 nM; in [5] it was 4.48 nM; in [10], 13.1 nM. The figures for the GI50 in [7] and in experiment [8] were 12 nM and 2.4 nM, respectively. Besides, the TGI in experiment [1] came to 11.3 nM; in [2], 15.8 nM; in experiment [3], 26.8 nM; in experiment [4], 4.11 nM; in experiment [5], 16.8 nM; in experiment [10], 29.7 nM. Further, the TGI in experiment [7] stood at 29 nM; in [8] it was 15.4 nM.
